Source: PMC10222203 (Pharmaceutics, 2023)
Where “and” joins values, the source holds several entries; their conditions need not be identical. Equal values may be shown once. Read-outs that look alike come from different tables or passages of the source.

Tests used:
[1] = rat; for Kp at 4 h / Kp uu: in vivo; for Kp at 4 h / Total brain-to-plasma concentration ratio, Kp,brain: 0.5 mg/kg, 4 h infusion, total dose 0.5 mg/kg; for Kp at 4 h: Total brain-to-plasma concentration ratio, Kp,brain; for Kp at 4 h / Kp uu / Kp,uu,brain as percent equilibrating across the BBB / Total brain-to-plasma concentration ratio, Kp,brain / Unbound brain-to-plasma concentration ratio, Kp,uu,brain: steady state; for Kp uu: Unbound brain-to-plasma concentration ratio, Kp,uu,brain; for Kp uu / Unbound brain-to-plasma concentration ratio, Kp,uu,brain: Kp,brain/(fu,plasma × Vu,brain); for Total steady-state plasma concentration, Cplasma,ss: listed in Table S3
Experimental: In order to assure the accurate assessment of the extent of BBB transport and to minimize the use of animals, the achievement of steady-state conditions of total plasma concentration and equilibration across the blood–brain interface are critical. […] The infusion was administered through the catheter placed in the femoral vein. Blood (200 µL) was sampled from the catheter in the femoral artery at 1, 2, and 3 h into heparinized tubes to ensure that steady-state conditions were obtained in plasma. At 4 h, blood was sampled through heart puncture using EDTA vacutainers (BD, Eysins, Switzerland), and the whole brain was collected. The blood samples were centrifuged, and plasma was collected. All samples were immediately frozen on dry ice and then kept at −20 °C pending analysis.
The in vivo total brain-to-plasma concentration ratio, Kp,brain, was studied by measuring steady-state concentrations in plasma and the total amount in the brain (Equation (1)). (1) Kp,brain=Abrain/Cplasma where Abrain is the total amount of peptide in the brain calculated using Equation (2), including compensation for the residual cerebral blood, and Cplasma is total plasma concentration (µg/mL).
The unbound brain-to-plasma ratio, Kp,uu,brain, was calculated using Equation (13) according to the CMA [37], where Kp,brain is the total brain-to-plasma ratio, fu,plasma is the unbound fraction in plasma as measured with equilibrium dialysis, and Vu,brain is the unbound volume of distribution in brain measured with the brain slice technique. (13) Kp,uu,brain=Kp,brain/fu,plasma×Vu,brain

[2] = rat, Kp,uu,cell
Experimental: The brain slice assay was performed according to previously published protocols. Three animals per study group were investigated. All glassware used in the brain slice experiments was silanized using dimethyldichlorosilane in heptane to avoid non-specific binding of the cyclic peptides to glass. In short, the silanization solution was added to the glassware and left there for one hour, after which the glassware was rinsed with methanol and then placed in a heating cabinet to cure. Slicing was performed with a Leica VT1200 microtome slicer (Leica Microsystems, Wetzlar, Germany). […] At the end of the incubation, two 200 µL samples of aECF were taken and mixed with blank brain homogenate (1:4, w:v) for assessment of unbound buffer concentration, Cbuffer (nanomoles per mL). Thereafter, the brain slices were individually sampled, carefully dried on filter paper, weighed, and homogenized in aECF (1:9, w:v) to determine the total amount of drug in the slice, Aslice (nanomoles per g brain). The density of brain tissue was assumed to be 1 g/mL. The key assumption of the assay is achievement of equilibrium during 5 h incubation, with Cbuffer being equal and representing unbound brain slice interstitial concentration. Samples of aECF (200 µL) were also taken from the scintillation vial without brain slices at the start and at the end of the incubation to determine the relative recovery and thermostability of the peptides. The unbound volume of distribution in brain, Vu,brain (mL/g brain), was calculated using Equation (3). (3) Vu,brain =Aslice−Vi×Cbuffer/Cbuffer(1−Vi) where Vi is the volume of buffer film that coats the slice and equals to 0.094 mL/g brain [39].
To study the potential mechanism of intracellular distribution of the peptides, several exploratory experiments were performed (Figure 2a). […] In addition, the role of endocytosis and pH partitioning-driven distribution was investigated. The slices were pre-incubated for 30 min with the blockers before the addition of the peptides. Dynasore was used as an inhibitor of dynamin-dependent endocytosis, which is involved in both clathrin and caveolin vesicle formation (Figure 3a). […] Due to high cytotoxicity, the concentration of […] was chosen based on previous studies.
The unbound intracellular-to-extracellular concentration ratio, Kp,uu,cell, was calculated according to Equation (14) by combining the brain slice derived, Vu,brain, with the measurement of brain tissue binding, fu,brain, from the tissue homogenate study. This allows elucidation of whether the uptake into the brain cells is driven mainly by passive processes and intracellular binding and/or partitioning, such as lysosomal trapping, or by active uptake into the cells. (14) Kp,uu,cell=fu,brain×Vu,brain

[3] = tested on: astrocytes differentiated from human neural stem cells; details: 500 nM, 5 h, 37 °C
Experimental: (§1) Human neural stem cells (hNSCs) derived from human embryonic stem cells (hESCs) were differentiated to neurons or astrocytes. […] Cells were allowed to differentiate into desired lineage for three weeks before the addition of peptides. The peptides were individually added to 2 mL Neurobasal medium to a final concentration of 500 nM and incubated at 37 °C for 5 h. The medium was removed, and the cells were subsequently lysed using 300 µL of Pierce™ lysis buffer (ThermoFisher Scientific Cat. No. 87787) per well. Samples were kept at −20 °C pending analysis. The uptake of peptides was determined using the total cellular-to-unbound medium concentrations ratio, Kp,u,cell (mL/g total protein), according to Equation (11). (11) Kp,u,cell=Ccell/Cu,medium=Acell/Vcell/Cu,medium where Acell (nanomoles per g total protein) is the total amount of peptide in the cell lysate normalized by the total protein content and estimated volume of the cells. Total protein concentration (mg/mL) in the cell lysate was determined using a NanoDrop 2000C (ThermoFisher, Waltham, MA, USA) by measuring the absorbance at 280 nm. Vcell was estimated using the value of 6.5 µL/mg protein by analogy of HEK293 cells. […] The parameter Kp,u,cell (mL per g of total protein at 5 h) is a partition coefficient between the buffer and the cell culture, where the fraction in the buffer has no binding, but the measured concentration in the cells is a composite of both uptake into the cells and binding to both the cell surface and intra-cellular components. This parameter is thereby similar to Vu,brain as it also gives a description of both binding and uptake processes.
(§2) For estimation of the extent of transport across the cellular membrane, the unbound intracellular-to-extracellular ratio, Kp,uu,cell was calculated as described below:(12) Kp,uu,cell=Kp,u,cell×fu,cell

[4] = tested on: neurons differentiated from human neural stem cells; details: for Total neuronal cell-to-unbound medium concentration ratio, Kp,u,cell,N: neurons, 500 nM, 5 h, 37 °C
Experimental: as §1, §2

[5] = Simulation of unbound brain exposure (two-compartment model, Berkeley Madonna); design: species or system rat; details: parameter used in simulation; for clearance: read-out: Systemic clearance, CL (converted); for Vd: rat
Experimental: The simulation was performed at given initial total plasma concentration to be equal to steady-state concentrations obtained in the neuroPK study (Table 2), utilizing the parameters listed in Supplementary Material Table S3. A two-compartment model consisting of blood and brain compartments with a focus on unbound concentrations was characterized (Supplementary Material Figure S1 describes the structure of the model and the codes).

plasma proteins = details: undiluted rat plasma, 1 µM, equilibrium dialysis 6 h 37 °C
Experimental: Peptide binding to plasma proteins, brain tissue homogenate, and lung tissue homogenate as well as to neuronal and astrocyte cell culture homogenates was investigated using equilibrium dialysis [47]. Undiluted plasma and brain from three peptide-naïve rats were used in the experiment. The brain homogenate was prepared by homogenizing 1 part brain with 4 parts of phosphate-buffered saline (PBS, pH 7.4). […] Semi-permeable membranes with a molecular weight cut-off of 12–14 kDa were used and placed in an HTD96b apparatus (HTDialysis, Gales Ferry, CT, USA). The undiluted plasma and respective homogenates were spiked with individual peptide to a concentration of 1 µM and were dialyzed against PBS (pH 7.4). Five technical replicates were prepared per biological replicate. The experiment was run for 6 h at 37 °C in a MaxQ4450 shaker (Thermo Fisher Scientific, NinoLab, Sweden) at 200 rpm. […] Aliquots (80 µL) were taken from the buffer and plasma/homogenate sides. To compensate for any differences in matrix during bioanalysis, the plasma and homogenate samples were mixed with equal volumes of blank buffer, and the buffer samples were mixed with an equal volume of relevant blank plasma/homogenate. Spiked plasma and respective homogenate samples were incubated to control for relative recovery and thermal stability of the peptides in respective matrices.
The unbound fraction in undiluted plasma was calculated using Equation (5), where Cbuffer is the unbound concentration of peptide in the buffer and Cplasma is the total concentration of peptide in plasma at 6 h. The binding of peptide in various homogenates was assessed in two steps. First, the fraction of unbound peptide in the diluted homogenate, fu,h,D, was calculated using Equation (6), where Chomogenate is the total concentration of peptide in respective homogenate at 6 h. Second, the correction for the dilution was implemented as described in Equation (7), where D is the dilution factor used in the preparation [47]. D was 5 for brain and lung homogenates and on average 35.3 for the cell culture studies, as determined based on the total protein content and the total volume of lysate. (5) fu,plasma=Cbuffer/Cplasma (6) fu,h,D=Cbuffer/Chomogenate (7) fu,tissue/cell=1/D/((1/fu,h,D )−1)+1/D

[6] = Unbound intracellular-to-extracellular (interstitial) concentration ratio, brain slices 37 °C, fu,brain × Vu,brain
[7] = rat weight 0.3 kg, read-out: Apparent volume of distribution, Vd
[8] = read-out: Apparent volume of distribution unbound, Vd,u

SMILES | Kp at 4 h [1] | Kp uu [1] | Kp,uu,brain as percent equilibrating across the BBB [1] [%] | Total brain-to-plasma concentration ratio, Kp,brain [1] | Unbound brain-to-plasma concentration ratio, Kp,uu,brain [1] | Total steady-state plasma concentration, Cplasma,ss [1] [nmol/L] | Kp uu [2, 6] | Total astrocyte cell-to-unbound medium concentration ratio, Kp,u,cell,A [3] | Total neuronal cell-to-unbound medium concentration ratio, Kp,u,cell,N [4] [mL/g total protein] | clearance ([5]; rat weight 0.3 kg) [mL/min] | Vd [5, 7] [L] | Vd [5, 8] [L] | Fraction unbound in plasma, fu,plasma (plasma proteins) | other results
CC(C)C[C@@H]1NC(=O)CNC(=O)[C@H](CC(N)=O)NC(=O)[C@H](CCCNC(=N)N)NC(=O)[C@H]([C@@H](C)O)NC(=O)[C@@H]2CSSC[C@@H]3NC(=O)[C@H]([C@@H](C)O)NC(=O)CNC(=O)CNC(=O)[C@H](C(C)C)NC(=O)[C@@H]4CSSC[C@H](NC(=O)[C@H]([C@@H](C)O)NC(=O)[C@H](CSSC[C@H](NC(=O)[C@H](C(C)C)NC(=O)[C@@H]5CCCN5C1=O)C(=O)NCC(=O)N[C@@H](CCC(=O)O)C(=O)N[C@@H]([C@@H](C)O)C(=O)N4)NC(=O)CNC(=O)[C@@H]1CCCN1C(=O)[C@H]([C@@H](C)O)NC(=O)[C@H](CC(N)=O)NC3=O)C(=O)N[C@@H](CO)C(=O)N[C@@H](Cc1c[nH]c3ccccc13)C(=O)N1CCC[C@H]1C(=O)N[C@@H](C(C)C)C(=O)N2 [Kalata B1] | 0.23 | 0.005 | 0.5 | 0.234 ± 0.083 | 0.00479 ± 0.0023 | 1096 | 9.7 | 94.73 ± 3.08 mL/g total protein | 135.35 ± 21.2 | 0.48 | 0.0966 | 0.029 | 0.299 ± 0.095 | Kp uu ([2]; brain slices incubated at 4 °C): 0.0721; Total astrocyte cell-to-unbound medium concentration ratio, Kp,u,cell,A ([3]; listed as kalata B1): 94.7 mL/g total protein; Relative reduction of Kp,uu,cell in cell culture versus tissue slice experiments ([4]; neuron and astrocyte cultures vs brain slices): ca. 3 fold; Difference between Kp,u,cell (neurons, astrocytes) and Vu,brain (brain slice assay) ([4]; neurons and astrocytes vs brain slices): less than 2 fold
CC[C@H](C)[C@@H]1NC(=O)[C@@H]2CCCN2C(=O)[C@@H]2CCCN2C(=O)[C@H]([C@@H](C)CC)NC(=O)[C@H](CO)NC(=O)[C@H](CCCCN)NC(=O)[C@H]([C@@H](C)O)NC(=O)[C@@H]2CSSC[C@H](NC1=O)C(=O)N[C@@H](Cc1ccccc1)C(=O)N1CCC[C@H]1C(=O)N[C@@H](CC(=O)O)C(=O)NCC(=O)N[C@@H](CCCNC(=N)N)C(=O)N2 [SFTI-1, sunflower trypsin inhibitor-1] | 0.06 | 0.13 | 13 | 0.0618 ± 0.0318 | 0.129 ± 0.0698 | 400 | 0.415 ± 0.079 | 19.0 mL/g total protein and 19.02 ± 4.34 mL/g total protein | 31.11 ± 12.46 | 0.545 | 0.0573 | 0.054 | 0.936 ± 0.038 | Kp uu ([2]; mean values across experimental conditions, brain slices, 4 °C, inhibition of endocytosis, or dissipation of the pH gradient): 0.3 to 0.47; Kp,u,cell fold lower than for kalata B1 ([4]; neurons and astrocytes): up to 5 fold; CLin [5]: 0.0017 L/h; CLout [5]: 0.01317 L/h; Systemic clearance unbound, CLu [5]: 0.0307 L/h; Total steady-state plasma concentration, Cplasma,ss [5]: 0.6052 mg/L; Unbound steady-state plasma concentration, Cplasma,u,ss [5]: 0.5665 mg/L
